≈ marks a conversion by molar mass, not a printed value. Where “and” joins values, the source holds several entries; their conditions need not be identical. Equal entries are not always repeated.
Key:
Test in all cases: ≥ marks a high value that may be exact or a test limit, other limits are often not marked, values filed in µg/mL are converted to µM
Candida albicans = tested on: Candida albicans
[1] = tested on: Pseudomonas aeruginosa ATCC 27853
[2] = tested on: Staphylococcus aureus ATCC 49476
Staphylococcus aureus MR = tested on: Staphylococcus aureus MR
[3] = tested on: Aspergillus flavus KCTC 6905
[4] = tested on: Aspergillus fumigatus KCTC 6145
[5] = tested on: Candida krusei CCARM 14017
[6] = tested on: Candida parapsilosis CCARM 14016
[7] = tested on: Candida tropicalis KCTC 7221
[8] = tested on: Fusarium verticillioides KCTC 6149
[9] = tested on: Trichosporon beigelii KCTC 7707
[10] = tested on: Acinetobacter baumannii ATCC 19606
[11] = tested on: Bacillus megaterium ATCC 13632
[12] = tested on: Bacillus subtilis ATCC 6051
[13] = tested on: Candida albicans ATCC 90028
[14] = tested on: Candida tropicalis ATCC 750
[15] = tested on: Cryptococcus neoformans ATCC 208821
[16] = tested on: Enterococcus faecium ATCC 35667
[17] = tested on: Escherichia coli ATCC 25922
[18] = tested on: Klebsiella pneumoniae ATCC 700603
[19] = tested on: Staphylococcus aureus ATCC 29213
[20] = tested on: Staphylococcus aureus ATCC 43300
[21] = tested on: Staphylococcus aureus VRSA1
[22] = tested on: Streptococcus pneumoniae ATCC 700677
Aeromonas salmonicida = tested on: Aeromonas salmonicida
[23] = tested on: Pseudomonas aeruginosa K799
[24] = tested on: Pseudomonas aeruginosa Z61
[25] = tested on: Salmonella enterica serovar typhimurium MS7953s
[26] = tested on: Salmonella enterica subsp. enterica serovar Typhimurium ATCC 14028s
[27] = tested on: Staphylococcus epidermidis C621
Vibrio anguillarum = tested on: Vibrio anguillarum
[28] = tested on: Aeromonas veronii ATCC 35624
Aeromonas veronii CL0901 = tested on: Aeromonas veronii CL0901
[29] = tested on: Aeromonas veronii X-1-06909
[30] = tested on: Candida albicans CMCC 98001
[31] = tested on: Escherichia coli CVCC 1515
[32] = tested on: Escherichia coli CVCC 195
[33] = tested on: Escherichia coli CVCC 25922
[34] = tested on: Escherichia coli CVCC O157
[35] = tested on: Pseudomonas aeruginosa CICC 21630
[36] = tested on: Salmonella enterica subsp. enterica serovar Enteritidis CVCC 3377
[37] = tested on: Salmonella enterica subsp. enterica serovar Pullorum CVCC 1789
[38] = tested on: Salmonella enterica subsp. enterica serovar Pullorum CVCC 1809
[39] = tested on: Salmonella enterica subsp. enterica serovar Pullorum CVCC 533
[40] = tested on: Salmonella enterica subsp. enterica serovar Typhimurium ATCC 14028
[41] = tested on: Staphylococcus aureus ATCC 25923
[42] = tested on: Staphylococcus aureus ATCC 546
[43] = tested on: Staphylococcus hyicus NCTC 10350
Staphylococcus hyicus = tested on: Staphylococcus hyicus

Question: What does the source list for `CC[C@H](C)[C@H](NC(=O)[C@H](C)NC(=O)[C@H](CCCCN)NC(=O)CNC(=O)[C@H](C)NC(=O)[C@H](CO)NC(=O)[C@H](Cc1ccccc1)NC(=O)[C@H](CC(C)C)NC(=O)CNC(=O)CNC(=O)[C@@H](NC(=O)[C@@H](NC(=O)[C@H](Cc1cnc[nH]1)NC(=O)[C@H](Cc1cnc[nH]1)NC(=O)[C@@H](NC(=O)[C@@H](N)Cc1ccccc1)[C@@H](C)CC)[C@@H](C)CC)[C@@H](C)CC)C(=O)N[C@@H](Cc1cnc[nH]1)C(=O)N[C@@H](CCCN=C(N)N)C(=O)N[C@@H](Cc1cnc[nH]1)C(=O)N[C@@H](Cc1cnc[nH]1)C(=O)N[C@@H](CCCN=C(N)N)C(=O)N[C@@H](CCCN=C(N)N)C(=O)N[C@@H](CCCN=C(N)N)C(=O)N[C@@H](CCCN=C(N)N)C(=O)N[C@@H](CCCN=C(N)N)C(=O)O` [FIHHIIGGLFSAGKAIHRHHRRRRR]?
Answer: MIC (Candida albicans): 42.3 µM (≈ 128 µg/mL); MIC [1]: 84.5 µM (≈ 256 µg/mL); MIC [2]: ≥ 42.3 µM; MIC (Staphylococcus aureus MR): ≥ 169 µM

Question: How did the MIC [3] turn out when `CC[C@H](C)[C@H](NC(=O)CNC(=O)[C@H](CCC(N)=O)NC(=O)[C@H](C)NC(=O)[C@@H](NC(=O)[C@H](CCCCN)NC(=O)[C@H](CCCCN)NC(=O)[C@H](CC(C)C)NC(=O)[C@H](C)NC(=O)[C@H](CC(N)=O)NC(=O)[C@H](C)NC(=O)CN)C(C)C)C(=O)N[C@@H](Cc1cnc[nH]1)C(=O)N[C@@H](CCC(=O)O)C(=O)N[C@@H](C)C(=O)N[C@H](C(=O)N[C@@H](CCCCN)C(=O)N[C@@H](CC(C)C)C(=O)N[C@H](C(=O)N[C@@H](CC(N)=O)C(=O)N[C@@H](CC(N)=O)C(=O)N[C@@H](Cc1cnc[nH]1)C(=O)N[C@H](C(=O)N[C@@H](CCC(N)=O)C(N)=O)C(C)C)[C@@H](C)CC)[C@@H](C)CC` [GANALKKVAQGIHEAIKLINNHVQ] was run?
Answer: ≥ 32 µM and 12 µM

Question: What about the MIC [4] of the same compound?
Answer: 24 µM and 16 µM

Question: What about the MIC [5] of the same compound?
Answer: 6 µM and 4 µM

Question: What about the MIC [6] of the same compound?
Answer: ≥ 64 µM

Question: What about the MIC [7] of the same compound?
Answer: 2 µM and 1.5 µM

Question: And the MIC [8]?
Answer: 24 µM and 16 µM

Question: And the MIC [9]?
Answer: 2 µM (≈ 5.13 µg/mL)

Question: With `CC[C@H](C)[C@H](N)C(=O)N[C@@H](Cc1ccccc1)C(=O)N[C@@H](Cc1c[nH]c2ccccc12)C(=O)N[C@@H](CC(C)C)C(=O)N[C@@H](Cc1ccccc1)C(=O)N[C@@H](CCCN=C(N)N)C(=O)NCC(=O)N[C@@H](CCCCN)C(=O)N[C@@H](C)C(=O)N[C@@H](CC(=O)O)C(=O)N[C@H](C(=O)N[C@@H](C)C(=O)N[C@@H](CC(C)C)C(N)=O)C(C)C` [IFWLFRGKADVAL] as the compound, how does the MIC [10] read?
Answer: > 167 µM

Question: What about the MIC [11] of the same compound?
Answer: 29.5 µM (≈ 45.2 µg/mL)

Question: What about the MIC [12] of the same compound?
Answer: ≥ 41.7 µM

Question: What about the MIC [13] of the same compound?
Answer: ≥ 83.3 µM

Question: And the MIC [14]?
Answer: ≥ 83.3 µM

Question: What about the MIC [15] of the same compound?
Answer: 14.7 µM (≈ 22.6 µg/mL)

Question: What about the MIC [16] of the same compound?
Answer: ≥ 41.7 µM

Question: And the MIC [17]?
Answer: > 167 µM

Question: What about the MIC [18] of the same compound?
Answer: > 167 µM

Question: What about the MIC [1] of the same compound?
Answer: > 167 µM

Question: What about the MIC [19] of the same compound?
Answer: > 83.3 µM

Question: What about the MIC [20] of the same compound?
Answer: > 83.3 µM

Question: And the MIC [21]?
Answer: ≥ 83.3 µM

Question: And the MIC [22]?
Answer: ≥ 83.3 µM

Question: Which results are given for `CC[C@H](C)[C@H](NC(=O)[C@@H](N)CO)C(=O)NCC(=O)N[C@@H](CO)C(=O)N[C@@H](C)C(=O)N[C@@H](Cc1ccccc1)C(=O)N[C@@H](CCCCN)C(=O)N[C@@H](CCCCN)C(=O)N[C@@H](C)C(=O)N[C@@H](C)C(=O)N[C@@H](Cc1cnc[nH]1)C(=O)N[C@H](C(=O)NCC(=O)N[C@@H](CCCCN)C(=O)N[C@@H](Cc1cnc[nH]1)C(=O)N[C@H](C(=O)NCC(=O)N[C@@H](CCCCN)C(=O)N[C@@H](C)C(=O)N[C@@H](C)C(=O)N[C@@H](CC(C)C)C(=O)N[C@H](C(=O)N[C@@H](Cc1cnc[nH]1)C(=O)N[C@@H](Cc1ccc(O)cc1)C(=O)N[C@@H](CC(C)C)C(=O)N[C@@H](CC(N)=O)C(=O)O)[C@@H](C)O)C(C)C)C(C)C` [SIGSAFKKAAHVGKHVGKAALTHYLN]?
Answer: MIC (Aeromonas salmonicida): 2.96 µM (≈ 8 µg/mL); MIC [23]: 23.7 µM (≈ 64 µg/mL); MIC [24]: 23.7 µM (≈ 64 µg/mL); MIC [25]: 0.739 µM (≈ 2 µg/mL); MIC [26]: 23.7 µM (≈ 64 µg/mL); MIC [27]: 23.7 µM (≈ 64 µg/mL); MIC (Vibrio anguillarum): 23.7 µM (≈ 64 µg/mL)

Question: For `CC(C)[C@H](N)C(=O)N[C@@H](Cc1ccccc1)C(=O)N[C@@H](C)C(=O)N[C@@H](Cc1c[nH]c2ccccc12)C(=O)N[C@@H](CC(N)=O)C(=O)N[C@H](C(=O)N[C@H]1CSSC[C@@H](C(=O)N[C@@H](Cc2cnc[nH]2)C(=O)N[C@@H](CCCN=C(N)N)C(=O)N[C@@H](CCCN=C(N)N)C(=O)N[C@@H](C)C(=O)N[C@@H](CC(N)=O)C(N)=O)NC(=O)[C@H](C(C)C)NC(=O)[C@H](CCCN=C(N)N)NC(=O)[C@H](C(C)C)NC(=O)[C@H](C(C)C)NC(=O)[C@H](CC(N)=O)NC(=O)[C@H](CCCN=C(N)N)NC(=O)[C@H](Cc2ccc(O)cc2)NC(=O)[C@H](C(C)C)NC1=O)C(C)C` [VFAWNVCVYRNVVRVCHRRAN], which MIC [28] is on record?
Answer: 6.25 µM (≈ 16 µg/mL)

Question: And the MIC (Aeromonas veronii CL0901)?
Answer: 12.5 µM (≈ 32 µg/mL)

Question: What about the MIC [29] of the same compound?
Answer: 12.5 µM (≈ 32 µg/mL)

Question: And the MIC [30]?
Answer: ≥ 50 µM

Question: And the MIC [31]?
Answer: 1.56 µM (≈ 4 µg/mL)

Question: What about the MIC [32] of the same compound?
Answer: 3.12 µM (≈ 7.99 µg/mL)

Question: What about the MIC [33] of the same compound?
Answer: 3.12 µM (≈ 7.99 µg/mL)

Question: And the MIC [34]?
Answer: 3.12 µM (≈ 7.99 µg/mL)

Question: And the MIC [35]?
Answer: 12.5 µM (≈ 32 µg/mL)

Question: What about the MIC [36] of the same compound?
Answer: 0.781 µM (≈ 2 µg/mL)

Question: And the MIC [37]?
Answer: 6.25 µM (≈ 16 µg/mL)

Question: And the MIC [38]?
Answer: 3.12 µM (≈ 7.99 µg/mL)

Question: And the MIC [39]?
Answer: 6.25 µM (≈ 16 µg/mL)

Question: And the MIC [40]?
Answer: 6.25 µM (≈ 16 µg/mL)

Question: What about the MIC [41] of the same compound?
Answer: 12.5 µM (≈ 32 µg/mL)

Question: And the MIC [20]?
Answer: 12.5 µM (≈ 32 µg/mL)

Question: What about the MIC [42] of the same compound?
Answer: 6.25 µM (≈ 16 µg/mL)

Question: What about the MIC [43] of the same compound?
Answer: 25 µM (≈ 63.9 µg/mL)

Question: And the MIC (Staphylococcus hyicus)?
Answer: 12.5 µM (≈ 32 µg/mL)

Source: DBAASP
